Measurements: patent US20250099431A1, “GLP-1R MODULATING COMPOUNDS” (priority 2020, published 2025)

Tests used:
[1] = Microsomal stability (liver microsomal assay, mixed cofactors); predicted hepatic clearance; format: in vitro ADME; conditions: liver microsomes 1.0 mg protein/mL (+UDPGA +NADPH), 1 μM analyte, 37° C.; scaled with human liver weight and hepatic blood flow 1.3 L/hr/kg
Summary of the method: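 Compound at 1 μM with human or rat pooled liver microsomes, alamethicin-treated, pH 7.4 phosphate, NADPH-regenerating plus UDPGA cofactors, 37° C, sampled 0–70 min. Parent/internal standard ratio by RapidFire QToF MS; half-life from initial log-linear decay, scaled to intrinsic and predicted hepatic clearance and hepatic extraction.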

[2] = target: GLP-1R (Homo sapiens (Human), UniProt P43220); test: GLP-1R activation: cAMP increase in CHO cells stably expressing GLP-1R; format: cell-based; conditions: cAMP increase, 10 point dose response, 30 minutes incubation at 37° C., read-out: EC50
Sequence of GLP-1R (P43220 24-463): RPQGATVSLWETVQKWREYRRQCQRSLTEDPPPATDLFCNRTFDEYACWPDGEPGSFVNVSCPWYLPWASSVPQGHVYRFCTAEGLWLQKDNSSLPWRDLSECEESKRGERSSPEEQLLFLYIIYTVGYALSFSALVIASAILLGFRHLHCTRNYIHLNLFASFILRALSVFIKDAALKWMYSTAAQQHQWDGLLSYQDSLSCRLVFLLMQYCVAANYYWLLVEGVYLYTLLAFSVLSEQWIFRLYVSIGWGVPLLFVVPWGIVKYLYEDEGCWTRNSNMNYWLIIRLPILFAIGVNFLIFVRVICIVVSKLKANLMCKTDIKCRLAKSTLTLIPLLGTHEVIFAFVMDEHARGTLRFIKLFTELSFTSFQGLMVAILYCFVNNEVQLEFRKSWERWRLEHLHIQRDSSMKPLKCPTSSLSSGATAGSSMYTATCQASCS
Summary of the method: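 CHO cells stably expressing GLP-1R were incubated 1 h at 37 °C in medium with 1% BSA, then exposed to compound in a 10-point dose response for 30 min at 37 °C. cAMP rise was detected by HTRF (Gs Dynamic kit). EC50 came from a sigmoidal fit of response against log agonist concentration.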

Compound	Predicted Hepatic Clearance (Pred. Cl.) [1] [mL/min/kg]	EC50 [2] [nM]
COCCn1c(Cc2c(F)cc(-c3cccc4c3OC3(CCCOc5cc(Cl)ccc53)O4)cc2F)nc2ccc(C(=O)O)cc21 (stereo not shown) [Example 55, 2-(4-(8-chloro-3,4-dihydro-2H-spiro[benzo[b]oxepine-5,2′-benzo[d][1,3]dioxol]-4′-yl)-2,6-difluorobenzyl)-1-(2-methoxyethyl)-1H-benzo[d]imidazole-6-carboxylic acid]	8.3	1270
O=C(O)c1ccc2nc(Cc3c(F)cc(-c4cccc5c4C(=O)N(c4ccc(Cl)cc4F)C5)cc3F)n(C[C@@H]3CCO3)c2c1 [Example 72, (S)-2-(4-(2-(4-chloro-2-fluorophenyl)-3-oxoisoindolin-4-yl)-2,6-difluorobenzyl)-1-(oxetan-2-ylmethyl)-1H-benzo[d]imidazole-6-carboxylic acid]	3.67	10000
COCCn1c(Cc2c(F)cc(-c3cccc4c3OC3c5ccc(Cl)cc5OC43)cc2F)nc2ccc(C(=O)O)cc21 (stereo not shown) [Example 54, 2-(4-(7-chloro-4b,9b-dihydrobenzofuro [3,2-b]benzofuran-1-yl)-2,6-difluorobenzyl)-1-(2-methoxyethyl)-1H-benzo[d]imidazole-6-carboxylic acid]	3	628
CC1(c2ccc(C(F)(F)F)cc2)Oc2cccc(-c3cc(F)c(Cc4nc5ccc(C(=O)O)cc5n4C[C@@H]4CCO4)cc3F)c2O1 (stereo partly drawn) [Example 63, 2-(2,5-difluoro-4-(2-methyl-2-(4-(trifluoromethyl)phenyl)benzo[d][1, 3]dioxol-4-yl)benzyl)-1-(((S)-oxetan-2-yl)methyl)-1H-benzo[d]imidazole-6-carboxylic acid]	3.5	0.62
COCCn1c(Cc2c(F)cc(-c3cccc4c3OC(C)(c3ccc(C#N)s3)O4)cc2F)nc2ccc(C(=O)O)cc21 (stereo not shown) [Example 11, 2-(4-(2-(5-cyanothiophen-2-yl)-2-methylbenzo[d][1, 3]dioxol-4-yl)-2,6-difluorobenzyl)-1-(2-methoxyethyl)-1H-benzo[d]imidazole-6-carboxylic acid]	7.17	34
CC1(c2ccc(Cl)cc2F)Oc2cccc(-c3ccc(Cc4nc5ccc(C(=O)O)cc5n4Cc4ccon4)c(F)c3)c2O1 (stereo not shown) [Example 107, 2-(4-(2-(4-chloro-2-fluorophenyl)-2-methylbenzo[d][1, 3]dioxol-4-yl)-2-fluorobenzyl)-1-(isoxazol-3-ylmethyl)-3a,7a-dihydro-1H-benzo[d]imidazole-6-carboxylic acid]	4.33	1.9
CC1(c2ccc(Cl)cn2)Oc2cccc(-c3cc(F)c(Cc4nc5ccc(C(=O)O)cc5n4C[C@@H]4CCO4)c(F)c3)c2O1 (single isomer, unassigned) [Example 49]	3.33	0.31
CC1(c2ccc(Cl)cc2F)Oc2cccc(-c3cc(F)c(Cc4nc5ccc(C(=O)O)cc5n4Cc4ncco4)c(F)c3)c2O1 (stereo not shown) [Example 69, 2-(4-(2-(4-chloro-2-fluorophenyl)-2-methylbenzo[d][1, 3]dioxol-4-yl)-2,6-difluorobenzyl)-1-(oxazol-2-ylmethyl)-1H-benzo[d]imidazole-6-carboxylic acid]	2.5	2.5
CC1(c2ccc(Cl)cn2)Oc2cccc(-c3cc(F)c(Cc4nc5ccc(C(=O)O)cc5n4C[C@@H]4CCO4)c(F)c3)c2O1 (single isomer, unassigned) [Example 50]	3.17	16
CC1(c2ccc(Cl)cc2F)Oc2cccc(-c3cc(F)c(Cc4nc5ccc(C(=O)O)cc5n4CC4(CC#N)CC4)c(F)c3)c2O1 (stereo not shown) [Example 1, 2-(4-(2-(4-chloro-2-fluorophenyl)-2-methylbenzo[d][1, 3]dioxol-4-yl)-2,6-difluorobenzyl)-1-((1-(cyanomethyl)cyclo-propyl)methyl)-1H-benzo[d]imidazole-6-carboxylic acid]	<1.83	0.51
COCCn1c(Cc2ccc(-c3cccc4c3OC(c3ccc(C#N)cc3F)O4)cc2F)nc2ccc(C(=O)O)cc21 (stereo not shown) [Example 4, 2-(4-(2-(4-cyano-2-fluorophenyl)benzo[d][1, 3]dioxol-4-yl)-2-fluorobenzyl)-1-(2-methoxyethyl)-1H-benzo[d]imidazole-6-carboxylic acid]	4.17	103
CC1(c2ccc(C#N)cc2F)Oc2cccc(-c3cc(F)c(Cc4nc5ccc(C(=O)O)cc5n4C[C@@H]4CCO4)c(F)c3F)c2O1 (single isomer, unassigned) [Example 94]	7	0.32
COCCn1c(Cc2c(F)cc(-c3cccc4c3OC(C)(c3ccc(C#N)cc3F)O4)cc2F)nc2ccc(C(=O)O)cc21 (single isomer, unassigned) [Example 99, 2-(4-(2-(4-cyano-2-fluorophenyl)-2-methylbenzo[d][1, 3]dioxol-4-yl)-2,6-difluorobenzyl)-1-(2-methoxyethyl)-1H-benzo[d]imidazole-6-carboxylic acid]	11.3	2.4

Continued, values first:

Predicted Hepatic Clearance (Pred. Cl.) [1] [mL/min/kg]	EC50 [2] [nM]	Compound
3.67	111	COCCn1c(Cc2c(F)cc(-c3cccc4c3OC(C)(c3ccc(Cl)cn3)O4)cc2F)nc2ccc(C(=O)O)cc21 (stereo not shown) [Example 64, 2-(4-(2-(5-chloropyridin-2-yl)-2-methylbenzo[d][1, 3]dioxol-4-yl)-2,6-difluorobenzyl)-1-(2-methoxyethyl)-1H-benzo[d]imidazole-6-carboxylic acid]
4.83	219	COCCn1c(Cc2ccc(-c3cccc4c3OC(c3ccc(C#N)cc3)O4)cc2F)nc2ccc(C(=O)O)cc21 (stereo not shown) [Example 6, 2-(4-(2-(4-cyanophenyl)benzo[d][1, 3]dioxol-4-yl)-2-fluorobenzyl)-1-(2-methoxyethyl)-1H-benzo[d]imidazole-6-carboxylic acid]
6.33	1920	COCCn1c(Cc2ccc(-c3cccc4c3OC(c3ccccc3)O4)cc2F)nc2ccc(C(=O)O)cc21 (stereo not shown) [Example 32, 2-(2-fluoro-4-(2-phenylbenzo[d][1, 3]dioxol-4-yl)benzyl)-1-(2-methoxyethyl)-1H-benzo[d]imidazole-6-carboxylic acid]
3.17	49	COCCn1c(Cc2cc(F)c(-c3cccc4c3OC(c3ccc(C#N)cc3F)O4)cc2F)nc2ccc(C(=O)O)cc21 (single isomer, unassigned) [Example 39, 2-(4-(2-(4-cyano-2-fluorophenyl)benzo [d][1,3]dioxol-4-yl)-2,5-difluorobenzyl)-1-(2-methoxyethyl)-1H-benzo[d]imidazole-6-carboxylic acid]
7.67	1.7	CC1(c2ccc(Cl)cn2)Oc2cccc(-c3cc(F)c(Cc4nc5ccc(C(=O)O)cc5n4C[C@@H]4CCO4)c(C#N)c3)c2O1 (stereo partly drawn) [Example 74, 2-(4-(2-(5-chloropyridin-2-yl)-2-methylbenzo[d][1, 3]dioxol-4-yl)-2-cyano-6-fluorobenzyl)-1-(((S)-oxetan-2-yl)methyl)-1H-benzo[d]imidazole-6-carboxylic acid]
2.33	738	COCCn1c(Cc2ccc(-c3cccc4c3OC(c3ccc(Cl)cc3F)C4)cc2F)nc2ccc(C(=O)O)cc21 (stereo not shown) [Example 79, 2-(4-(2-(4-chloro-2-fluorophenyl)-2,3-dihydrobenzofuran-7-yl)-2-fluorobenzyl)-1-(2-methoxyethyl)-1H-benzo[d]imidazole-6-carboxylic acid]
4.83	0.033	CC1(c2ccc(Cl)cc2F)Oc2cccc(-c3cc(F)c(Cc4nc5ccc(C(=O)O)cc5n4C[C@@H]4CCO4)cc3F)c2O1 (single isomer, unassigned) [Example 44]
<1.83	0.86	CC1(c2ccc(Cl)cc2F)Oc2cccc(-c3cc(F)c(Cc4nc5ccc(C(=O)O)nc5n4CC4(CF)CC4)c(F)c3)c2O1 (stereo not shown) [Example 21, 2-(4-(2-(4-chloro-2-fluorophenyl)-2-methylbenzo[d][1, 3]dioxol-4-yl)-2,6-difluorobenzyl)-3-((1-(fluoromethyl)cyclo-propyl)methyl)-3H-imidazo[4,5-b]pyridine-5-carboxylic acid]
<1.83	37	CC1(c2ccc(Cl)cn2)Oc2cccc(-c3ccn(Cc4nc5ccc(C(=O)O)cc5n4C[C@@H]4CCO4)c(=O)c3)c2O1 (stereo partly drawn) [Example 26, 2-((4-(2-(5-chloropyridin-2-yl)-2-methylbenzo[d][1, 3]dioxol-4-yl)-2-oxopyridin-1(2H)-yl)methyl)-1-(((S)-oxetan-2-yl)methyl)-1H-benzo[d]imidazole-6-carboxylic acid]
2.5	4.5	CC1(c2ccc(Cl)cn2)Oc2cccc(-c3cnc(Cc4nc5ccc(C(=O)O)cc5n4C[C@@H]4CCO4)c(F)c3)c2O1 (stereo partly drawn) [Example 14, 2-((5-(2-(5-chloropyridin-2-yl)-2-methylbenzo[d][1, 3]dioxol-4-yl)-3-fluoropyridin-2-yl)methyl)-1-(((S)-oxetan-2-yl)methyl)-1H-benzo[d]imidazole-6-carboxylic acid]
